From article PMC3283556, “The Activities of Current Antimalarial Drugs on the Life Cycle Stages of Plasmodium: A Comparative Study with Human and Rodent Parasites” (PLoS Medicine, 2012)
“Also recorded” adds a separate entry of the source. Like-named read-outs stand apart in the source and are kept apart here.

Columns and labels:
[1] = system: Plasmodium oocysts; test: Oocyst development / sporogony, Plasmodium species not stated at the place; assay type: in vivo; settings: Plasmodium; 10 μM; box linked to oocysts; read-out: Inhibition at 10 μM (oocysts, Figure 5)
Protocol: (§1) Membrane feeds were performed as described previously. Briefly, PbGFPcon-infected mouse blood was mixed with compounds, immediately placed into membrane feeders (39°C) and offered for 30 min to 80–100 overnight-starved A. stephensi (SDA 500 strain). After 7–9 d at 19°C/80%RH, mosquito midguts were dissected out. Midguts were fixed with paraformaldehyde and oocyst number was determined microscopically by semi-automated analysis as previously described.
Gametocyte cultures were produced according to the same protocol as the Pf exflagellation assay. Pooled gametocyte cultures were evenly divided between compounds in fresh medium and incubated at 37°C for 24 h. The parasite pellets were then resuspended in fresh RBCs and human serum treated with the compounds to a 50% haematocrit and immediately fed to mosquitoes as described above and then maintained at 27°C/60%RH for 10–12 d before dissection and counting. […]

[2] = system: P. yoelii liver stage parasites (liver schizonts); test: P. yoelii liver stage assay in HepG2 cells (EEF immunofluorescence); assay type: cell-based, Plasmodium yoelii; settings: for IC50: Plasmodium yoelii
Protocol: (§2) 7.5×10^3 HepG2 cells in 50 µl of medium (1.5×10^5 cells/ml) were seeded in 384 well plates (Aurora 384 IQ-EB Black/Clear Plates) 20–26 h prior to the actual infection. 2 h prior to infection, 50 nl of compound in DMSO (0.1% final DMSO concentration per well) were transferred with a PinTool (GNF Systems) into the assay plates (10 µM final concentration). P. yoelii sporozoites were freshly dissected from infected A. stephensi mosquito salivary glands and filtered twice with a 40-µm strainer. The HepG2 cells were then infected with 8×10^3 sporozoites per well. After infection and 1-h incubation at 37°C, the cultures were washed, new media and compound added, and further incubated with 5-fold increased concentration of penicillin/streptomycin for 48 h at 37°C before exoerythrocytic forms (EEFs) quantification of infected cells by immunofluorescence.
After washing with 1×PBS and fixation of the cells with 4% paraformaldehyde solution (EMS), membranes were permeabilised with 0.5% Triton-X-100 (Thermo Fisher Scientific) and EEFs were stained using a mouse polyclonal serum raised against the Plasmodium heat shock protein 70 (HSP70), an Alexa goat antimouse IgG, Fca-specific DyLight 649 secondary antibody (Invitrogen), and the Hoechst 33342 nucleic acid dye (Invitrogen). Stained EEFs were then quantified using the Opera Confocal High Content Screening system (PerkinElmer). Images were collected using a 20× magnification at a binning of 2 using a 365 Xeon arc lamp illumination to detect the nuclei and 635-nm laser line to excite DyLight649.
(§3) High-content imaging of infected HepG2-CD81 cells was performed as described in Meister et al.. Wells were analysed using a custom Acapella (PerkinElmer) script parameterized for this assay. In brief, images from fields inside the well were first discarded as out of focus when the intensity in the nuclear area was too low. Then hepatic cells were counted by detecting the nuclei labelled with Hoechst 33342 and parasites were segmented using the HSP70 immuno-labelling. Morphology-based (e.g., area, roundness) and intensity-based features were calculated for each object detected including the hepatocyte nuclei and the parasites. Parasitemia was set as the ratio between parasite number (Alexa fluor positive) and the hepatocyte nuclei count, determined at the same time.
(§4) When an infected mosquito bites a host, ∼100 sporozoites may be injected into the dermis from where they rapidly invade liver cells,[33]. This infective step represents the second bottleneck during transmission and therefore another potentially vulnerable point for intervention. In the absence of a practical liver stage assay measuring the formation of P. falciparum/P. vivax liver schizonts, an equivalent assay was developed in P. yoelii and used to assess the activity of the collection of molecules against this specific stage. Specifically, P. yoelii sporozoites were dissected from the salivary glands of infected mosquitoes and were allowed to invade human hepatocarcinoma cells expressing the CD81 protein. The development of the liver schizonts was monitored by immunofluorescence staining using an HSP70 antibody specific to the parasite (Figure 4A).
Figure 4 Validation and results of anti-infectives tested against P. yoelii liver stage parasites. (A) Opera-generated images from a time point experiment using a 20× objective lens. P. yoelii parasites (red) were visualized using a mouse polyclonal HSP70 antibody, and the HepG2 cells (green) were stained with Hoechst 33342 nucleic acid dye. […] (B) A dose response plot with atovaquone from data generated from the Opera imaging system. The median areas of compound-treated parasites were compared to untreated DMSO controls to determine the degree of inhibition.

[3] = system: P. falciparum mature gametocytes / male gamete exflagellation; test: P. falciparum exflagellation assay; assay type: cell-based, Plasmodium falciparum; settings: for inhibition at 10 µM: Plasmodium falciparum
Protocol: After 24 h, exflagellation was triggered by a temperature decrease to ∼21°C and observed 20 min later under the microscope. Highly motile exflagellation centres were recorded for ∼50–150 adjacent fields of view and reported per 10,000 RBCs.
(§5) (A) Assays examined exflagellation (P. falciparum), ookinete formation (P. berghei), or oocyst formation (P. falciparum). All antimalarials were screened at 10 µM. (B) The biological content of the in vitro P. berghei ookinete assay spans gamete formation, fertilization, zygote development, and ookinete formation. […] (D) The in vitro P. falciparum exflagellation assay exposes mature gametocytes to antimalarials for 24 h before triggering exflagellation. […] All experiments in triplicate. (E) The in vivo P. falciparum oocyst assay differs from the P. berghei oocyst assay in that mature gametocytes were exposed to the antimalarials in culture for 24 h before feeding to mosquitoes.

[4] = system: HepG2 cells; test: Growth retardation of HepG2 cells; settings: for IC50: Homo sapiens, HepG2, read-out: IC50 HepG2; for CI (cytotoxicity index): IC50 HepG2 compared to IC50 parasite
Protocol: as §2, §3, §4

[5] = system: P. berghei ookinete formation; test: P. berghei ookinete development assay; assay type: cell-based, Plasmodium berghei; settings: for effect on ookinete formation: 10 µM; for IC50 / inhibition at 10 µM: Plasmodium berghei; for IC50: read-out: IC50 ookinete formation; for inhibition at 10 µM: read-out: Inhibition at 10 μM (ookinete, Figure 5)
Protocol: Compounds and P. berghei gametocyte-infected blood were dispensed in a 96-well plate containing ookinete medium. After 24 h at 19°C, Giemsa-stained ookinetes were counted under the microscope (×40) as previously described,[28].
as §5, with “Figure 3 The transmission-blocking potential of selected antimalarials in three bioassays that cover different phases of Plasmodium vector stage development. (A)” for “(A)”, “formation. Ookinete formation was insensitive to most of the antimalarials tested.” for “formation.”, “mosquitoes. […] NPC1161-B, lumefantrine, halofantrine, and mefloquine +RS isomer were also active. (n = 4–61 observations; average ± standard error of the mean [SEM]).” for “mosquitoes.”

[6] = system: P. berghei oocyst formation; test: Standard membrane feed assay, P. berghei oocysts in A. stephensi; assay type: in vivo, Plasmodium berghei; settings: 10 µM
Protocol: as §1
Supplementary file pmed.1001169.s001.tif: Figure S1 The transmission-blocking potential of selected compounds against P. berghei in standard membrane feeding assays. All antimalarials were screened at 10 µM in triplicate in independent experiments. The biological content of this assay spans gamete formation through to occyst development all within the gut of the mosquito. […] (TIF) Click here for additional data file.

[7] = system: P. falciparum asexual blood stage parasites (strains NF54, D6, K1, W2, 7G8, TM90C2A, V1/S); test: [3H]-hypoxanthine incorporation growth inhibition assay, asexual blood stage; assay type: cell-based, Plasmodium falciparum; settings: for IC50: Plasmodium falciparum
Protocol: In vitro antimalarial activity was measured using the [^3H]-hypoxanthine incorporation assay with various strains of P. falciparum obtained from MR4. Results were expressed as the concentration resulting in 50% inhibition (IC50).
The half-maximal inhibitory concentrations (IC50) were determined for each molecule (Table S2).
Figure 2 The potencies of selected antimalarials against asexual blood stages. Main classes of antimalarials were tested against the blood stage of seven Plasmodium falciparum strains in the [^3H]hypoxanthine incorporation assay as described in Vennerstrom et al.. The strains tested here (obtained from MR4) were two drug-sensitive strains NF54 and D6 and five drug-resistant strains: K1, resistant to chloroquine (CQ) and pyrimethamine (PYR), origin Thailand, carries mutations in genes pfmdr1, pfcrt, pfdhfr, pfdhps; W2, resistant to CQ, PYR, quinine, cycloguanil, and sulfadoxine, origin Vietnam; 7G8, resistant to CQ and PYR, origin Brazil; TM90C2A, resistant to CQ, PYR, and MFQ, origin Thailand; and V1/S, resistant to CQ, PYR and cycloguanil, origin Vietnam. Results are expressed as the concentration resulting in 50% growth inhibition (IC50).Values are means of ≥3 independent experiments. (A) Endoperoxides. (B) 4-AQs. (C) 8-AQs and amino alcohols. (D) Antifolates, antibiotics, and others.

[8] = HepG2, box linked to liver schizont, read-out: IC50 (liver schizont, Figure 5)
[9] = 10 µM, 24 h exposure of mature gametocytes
[10] = read-out: Inhibition at 10 μM (gametocytes/exflagellation, Figure 5)
[11] = HepG2, read-out: IC50 (liver schizont, Figure 5)
[12] = HepG2, read-out: IC50 liver stage

C[C@H]1[C@@H](O)O[C@@H]2O[C@@]3(C)CC[C@H]4[C@H](C)CC[C@@H]1[C@@]24OO3 [DHA, dihydroartemisinin]
inhibition at 10 µM [1]: > 90%
IC50 [2, 8]: < 1000 nM

CC(C)(N)CNC(=O)C[C@H]1CC[C@]2(CC1)OO[C@]1(O2)C2CC3CC(C2)CC1C3 [OZ277]
effect on exflagellation (words) [3, 9]: inhibited exflagellation totally
inhibition at 10 µM ([3]; 10 μM, box linked to gametocytes/exflagellation, read-out: Inhibition at 10 μM (gametocytes/exflagellation, Figure 5)): > 60%
inhibition at 10 µM [1]: > 90%
IC50 [4]: 7400 ± 5130 nM
CI (cytotoxicity index) [4]: 4.38
IC50 ([2]; HepG2, development of P. yoelii liver schizonts following infection of HepG2 cells, read-out: IC50 Parasite): 1690 ± 1220 nM

CCCCC[C@@H]1CN[C@H](C(=O)N[C@@H]([C@H]2O[C@H](SC)[C@H](O)[C@@H](O)[C@H]2O)[C@H](C)Cl)C1 [cis-mirincamycin]
effect on ookinete formation [5]: enhancement of ookinete formation that was not statistically significant

C[C@@H]1C[C@@H]([C@H](O)CC2CC(=O)NC(=O)C2)C(=O)[C@@H](C)C1 [cycloheximide]
effect on exflagellation (words) [3, 9]: inhibited exflagellation totally; also recorded: Inhibition of exflagellation
inhibition at 10 µM [3, 10]: > 60%
effect on growth of HepG2-CD81 cells [4]: retarded the growth of HepG2-CD81 cells
IC50 [4]: 920 ± 290 nM
CI (cytotoxicity index) [4]: 6.13
transmission-blocking effect on P. berghei oocysts (words) [6]: most notable transmission-blocking activity
effect on ookinete formation [5]: strongly inhibited ookinete formation
IC50 [5]: 0.025 µM
inhibition at 10 µM [5]: > 80%
IC50 [2, 11]: < 1000 nM
IC50 ([2]; HepG2, read-out: IC50 Parasite): 150 ± 10 nM
IC50 [2, 12]: < 200 nM

O=CN(O)CCCP(=O)(O)O [fosmidomycin]
effect on ookinete formation [5]: enhancement of ookinete formation that was not statistically significant

CCc1nc(N)nc(N)c1-c1ccc(Cl)cc1 [pyrimethamine]
inhibition at 10 µM ([3]; read-out: inhibition of exflagellation, 10 µM, 24 h exposure of mature gametocytes): > 80%
inhibition at 10 µM [1]: > 90%
IC50 ([7]; Erythrocyte, box linked to blood stage schizont, read-out: IC50 (erythrocyte schizont, Figure 5)): < 20 nM
resistance / retention of potency against resistant strains ([7]; drug-resistant strains): Resistance to pyrimethamine was verified in all drug-resistant strains
transmission-blocking effect on P. berghei oocysts (words) [6]: most notable transmission-blocking activity
effect on ookinete formation [5]: strongly inhibited ookinete formation
inhibition at 10 µM ([5]; 10 μM, box linked to ookinete): > 80%
IC50 [2, 8]: < 1000 nM
IC50 ([2]; HepG2, dose response, median parasite area (Opera), read-out: IC50 liver stage): < 10 nM

COc1cc(C)c2c(Oc3cccc(C(F)(F)F)c3)c(OC)cc(NC(C)CCCN)c2n1 (centres unmarked) [tafenoquine]
IC50 ([7]; strain 7G8): ~50 nM
IC50 ([7]; strain NF54): ~500 nM
effect on ookinete formation [5]: enhancement of ookinete formation that was not statistically significant

C=C(NC(=O)C(=C)NC(=O)c1csc(C2=N[C@@H]3c4csc(n4)[C@H]4NC(=O)c5csc(n5)[C@H]([C@](C)(O)[C@@H](C)O)NC(=O)[C@H]5CSC(=N5)/C(=C/C)NC(=O)[C@H]([C@@H](C)O)NC(=O)c5csc(n5)[C@]3(CC2)NC(=O)[C@H](C)NC(=O)C(=C)NC(=O)[C@H](C)NC(=O)[C@H]([C@@H](C)CC)N[C@@H]2C=Cc3c([C@H](C)O)cc(nc3[C@H]2O)C(=O)O[C@@H]4C)n1)C(N)=O [thiostrepton]
effect on exflagellation (words) [3, 9]: Inhibition of exflagellation
inhibition at 10 µM ([3]; 24 h, read-out: inhibition of exflagellation): > 80%
inhibition at 10 µM [3, 10]: > 60%
effect on growth of HepG2-CD81 cells [4]: retarded the growth of HepG2-CD81 cells
IC50 [4]: 180 ± 20 nM
CI (cytotoxicity index) [4]: 1.0
effect on ookinete formation [5]: strongly inhibited ookinete formation
IC50 [5]: 8 µM
inhibition at 10 µM [5]: > 80%
IC50 [2, 11]: < 1000 nM
IC50 ([2]; HepG2, read-out: IC50 Parasite): 180 ± 50 nM
IC50 [2, 12]: < 200 nM
potency range against liver stages ([2]; dose response): submicromolar potencies
